From paper PMC4519900 (International Journal of Molecular Sciences, 2015)
Read-outs that look alike come from different tables or passages of the source.

Legend:
[1] = target: T1, A. suum QFR (complex II) (Ascaris suum, UniProt O44074+P92506+P92507); conditions: read-out: IC50 for A. suum QFR; cited from earlier work
T1 construct: from tissue; host or cells: adult Ascaris suum muscle, mitochondrial fraction

[2] = tested on: bovine SQR; parameters: method as in PMID 3209470, PMID 12515859, PMID 19242645; conditions: cited from earlier work
[3] = target: T1, A. suum QFR (complex II); test: SQR activity assay of A. suum complex II (QFR) in mitochondrial fraction, UQ2 consumption at 278 nm; type: biochemical
Experimental: (§1) The CP buffer containing the prepared mitochondrial fraction was replaced with 50 mM Tris–HCl buffer, pH 7.4 containing 1 mM disodium malonate, 210 mM mannitol, 10 mM sucrose, and 1 mM EDTA. Final concentrations of the A. suum and porcine mitochondria (quantified protein) were adjusted to 10 and 20 mg/mL, respectively. Mitochondrial fractions were separated in 50 μL aliquots, frozen by liquid nitrogen and stored at 193 K until use. Prior to assay, the mitochondrial suspensions were thawed on ice and SQR was reactivated by incubation at 298 K for 30 min in equal volume of 50 mM potassium phosphate buffer pH 7.4, containing 337 μM disodium malonate. SQR assay buffer composed of 50 mM potassium phosphate buffer pH 7.4, 0.1% SML, 2 mM potassium cyanide, and 60 μM of 2,3-dimethoxy-5-methyl-6-geranyl-1,4-benzoquinone (UQ2) was pre-equilibrated at 298 K for 20 min. The assay mixture was constituted by adding 15 μg (A. suum) or 30 μg (porcine) of reactivated mitochondrial fraction to the assay buffer and incubated for 3 min for background activity measurements. The SQR activity was initiated by the addition of 10 mM disodium succinate, and recorded as rate of UQ2 consumption, monitored at 278 nm (ε278 = 15 mM^−1·cm^−1) for three minutes in 1 mL quartz cuvettes with a Shimadzu UV-3000 dual wavelength spectrophotometer (Shimazu, Kyoto, Japan). Inhibition of SQR activities were assayed in the presence of varying concentration of inhibitors (diluted in DMSO) and the IC50s calculated as the concentration of inhibitor that caused 50% decrease in SQR activity relative to control (DMSO).

[4] = target: T2, porcine SQR (complex II) (Sus scrofa, UniProt A5GZW8+D0VWV4+Q007T0); test: SQR activity assay of porcine complex II in mitochondrial fraction, UQ2 consumption at 278 nm; type: biochemical
T2 construct: from tissue; host or cells: porcine heart muscle, mitochondrial fraction
T2 sequence (Q007T0 29-280): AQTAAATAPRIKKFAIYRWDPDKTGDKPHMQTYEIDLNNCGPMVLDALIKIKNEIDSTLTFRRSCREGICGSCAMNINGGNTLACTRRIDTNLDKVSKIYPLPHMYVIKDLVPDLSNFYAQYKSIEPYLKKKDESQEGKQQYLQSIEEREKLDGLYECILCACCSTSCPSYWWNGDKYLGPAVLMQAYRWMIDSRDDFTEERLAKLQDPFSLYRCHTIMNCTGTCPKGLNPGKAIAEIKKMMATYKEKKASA
T2 sequence (D0VWV4 30-169): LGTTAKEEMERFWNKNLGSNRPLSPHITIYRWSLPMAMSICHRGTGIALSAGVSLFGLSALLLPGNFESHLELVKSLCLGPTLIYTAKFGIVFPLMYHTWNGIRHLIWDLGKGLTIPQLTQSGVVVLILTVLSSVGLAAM
T2 sequence (A5GZW8 57-159 limits assumed): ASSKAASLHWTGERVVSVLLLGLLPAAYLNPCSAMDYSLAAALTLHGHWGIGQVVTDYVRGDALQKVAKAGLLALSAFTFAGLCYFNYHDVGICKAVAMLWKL
T2 sequence (Q0QF01 43-664 partner): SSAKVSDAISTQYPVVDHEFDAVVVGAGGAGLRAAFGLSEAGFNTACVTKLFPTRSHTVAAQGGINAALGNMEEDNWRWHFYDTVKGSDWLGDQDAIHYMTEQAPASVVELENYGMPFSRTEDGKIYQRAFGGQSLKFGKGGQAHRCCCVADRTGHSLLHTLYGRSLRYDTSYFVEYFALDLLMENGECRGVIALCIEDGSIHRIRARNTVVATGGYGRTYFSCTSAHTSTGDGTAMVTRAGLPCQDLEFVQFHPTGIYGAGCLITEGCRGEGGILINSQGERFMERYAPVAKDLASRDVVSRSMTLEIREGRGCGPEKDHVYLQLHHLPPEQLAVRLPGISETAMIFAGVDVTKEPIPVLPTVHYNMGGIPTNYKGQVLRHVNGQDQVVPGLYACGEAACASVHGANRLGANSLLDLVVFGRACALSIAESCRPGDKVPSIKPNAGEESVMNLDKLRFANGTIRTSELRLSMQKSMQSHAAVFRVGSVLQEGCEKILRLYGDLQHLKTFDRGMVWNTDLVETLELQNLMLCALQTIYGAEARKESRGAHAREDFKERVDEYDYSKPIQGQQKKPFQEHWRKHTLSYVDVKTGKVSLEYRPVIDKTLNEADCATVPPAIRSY
Experimental: as §1

[5] = porcine complex II, SQR assay, 298 K, pH 7.4, read-out: IC50 (SQR)

T1 sequence (Q33862 19-645): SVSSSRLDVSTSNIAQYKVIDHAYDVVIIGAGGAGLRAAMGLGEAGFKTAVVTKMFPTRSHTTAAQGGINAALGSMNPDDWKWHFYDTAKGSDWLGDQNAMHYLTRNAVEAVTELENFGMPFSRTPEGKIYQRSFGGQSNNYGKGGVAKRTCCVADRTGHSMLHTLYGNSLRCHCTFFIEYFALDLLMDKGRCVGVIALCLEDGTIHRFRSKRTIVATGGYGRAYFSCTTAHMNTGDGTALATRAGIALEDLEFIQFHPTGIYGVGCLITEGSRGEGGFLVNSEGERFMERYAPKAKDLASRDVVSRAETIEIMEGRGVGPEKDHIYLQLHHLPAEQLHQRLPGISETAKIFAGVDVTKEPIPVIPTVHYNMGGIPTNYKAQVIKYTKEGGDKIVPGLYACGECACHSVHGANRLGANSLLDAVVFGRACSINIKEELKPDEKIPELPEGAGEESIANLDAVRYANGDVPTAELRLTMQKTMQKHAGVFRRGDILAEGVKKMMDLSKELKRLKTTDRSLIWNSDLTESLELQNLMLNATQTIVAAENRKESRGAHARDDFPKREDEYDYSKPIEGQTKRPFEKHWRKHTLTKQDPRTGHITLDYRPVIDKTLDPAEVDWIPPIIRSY
T1 sequence (P92507 26-156): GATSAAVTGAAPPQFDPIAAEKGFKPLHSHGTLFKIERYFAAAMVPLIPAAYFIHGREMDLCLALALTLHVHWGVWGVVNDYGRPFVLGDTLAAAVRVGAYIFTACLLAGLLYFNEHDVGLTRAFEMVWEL
T1 sequence (P92506 32-188): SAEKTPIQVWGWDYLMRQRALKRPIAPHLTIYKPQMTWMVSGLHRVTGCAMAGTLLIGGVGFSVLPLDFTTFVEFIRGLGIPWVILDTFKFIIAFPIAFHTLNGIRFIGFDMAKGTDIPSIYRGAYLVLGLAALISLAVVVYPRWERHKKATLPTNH
T1 sequence (O44074 22-282): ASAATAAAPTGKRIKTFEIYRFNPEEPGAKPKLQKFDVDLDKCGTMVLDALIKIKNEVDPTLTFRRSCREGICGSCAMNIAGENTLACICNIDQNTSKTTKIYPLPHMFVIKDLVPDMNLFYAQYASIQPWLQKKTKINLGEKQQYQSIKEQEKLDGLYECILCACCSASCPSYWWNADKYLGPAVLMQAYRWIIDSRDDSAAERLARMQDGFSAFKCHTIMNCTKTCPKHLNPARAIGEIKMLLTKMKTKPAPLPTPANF

Row | SMILES | IC50 [3] [nM] | IC50 [4, 5] [nM] | also measured
1 | COc1[nH]c(=O)c(C(=O)[C@@H](C)C[C@H](C)[C@@H](Cl)CCl)c(O)c1OC [Atpenin A5] | – | – | IC50 [1]: 12 nM; IC50 [2]: 3.6 nM
2 | CC(C)(C)c1ccc(CNC(=O)c2ccccc2C(F)(F)F)cc1 [NN23] | 5.5 | 111000 | selectivity index (IC50 porcine SQR / IC50 A. suum QFR) ([3]; A. suum QFR versus porcine SQR): about 20,000 folds
3 | O=C(NCc1ccc(Cl)cc1Cl)c1ccccc1C(F)(F)F [NN28] | 28 | – | IC10 against porcine SQR ([4]; porcine complex II, SQR assay): > 90000 nM
4 | CC(C)Oc1cccc(NC(=O)c2ccccc2I)c1 [derivative 1] | 72.3 | 6430 | –
5 | Cc1ccccc1C(=O)Nc1cccc(OC(C)C)c1 [derivative 2] | 515 | 90000 | –
6 | CN(C)Cc1cccc(NC(=O)c2ccccc2C(F)(F)F)c1 [derivative 3] | 3420 | 256000 | increase of IC50 for A. suum QFR relative to flutolanil [3]: 59 fold; increase of IC50 for porcine SQR relative to flutolanil ([4]; versus flutolanil): 6 fold
7 | O=C(Nc1cccc(Oc2ccccc2)c1)c1ccccc1C(F)(F)F [derivative 4] | 79.4 | 16200 | –
8 | O=C(Nc1cccc(-c2ccccc2)c1)c1ccccc1C(F)(F)F [derivative 5] | 24.5 | 8610 | –
9 | O=C(Nc1cccc(Oc2c(F)c(F)c(F)c(F)c2F)c1)c1ccccc1C(F)(F)F [derivative 6] | 330 | 236000 | –
10 | CC(C)Oc1cccc(NC(=O)c2ccccc2C(F)(F)F)c1 [flutolanil, N-[3-(isopropyloxy)phenyl]-2-(trifluoromethyl)benzamide, reference compound] | 58.1 | – | IC50 ([3]; IC50 (QFR), A. suum complex II, SQR assay, 298 K, pH 7.4): 58 nM; IC50 [4]: 45900 nM
